Data set [1] deals with hearts of diabetic mice. As to the kind of experiment: Cardiac fibrosis (collagen deposition, Mallory trichrome) in diabetic mice. The format is in vivo. Conditions: three months histidyl-cobinamide in drinking water. On the procedure:
FIGS. 4A-4K. Cobinamide Rescues Flies from Paraquat Poisoning and Prevents Abnormal Lipid and Protein Oxidation, DNA Damage, and Fibrosis in the Hearts of Diabetic Mice. FIG. 4A. At time zero, 10 fruit flies (D. melanogaster) were transferred to vials with food to which either phosphate-buffered saline (PBS), 0.8 mM of the indicated drugs, 20 mM paraquat (PQ), or 20 mM paraquat with 0.8 mM of the indicated drugs had been added. The number of live flies was counted each day for 7 d. The experiment was repeated seven times, for a total of 70 flies per condition. The percent surviving flies was calculated; error bars represent standard deviations and are shown in one direction only for sake of clarity. FIGS. 4B-4K. […] The amount of 8-isoprostane (FIG. 4B) was measured by ELISA, protein oxidation (FIGS. 4C-4D) was assessed by immunoblotting, and nitrotyrosine content (FIGS. 4E-4F) was assessed by immunohistochemistry. DNA damage was assessed by 8-OH-deoxyguanosine staining (FIGS. 4G-4H) and a long amplicon qPCR-based assay (FIG. 4I). Cardiac fibrosis (FIGS. 4J-4K) was assessed by Mallory trichrome staining, which stains collagen blue. […] For Panels C, D, and I, frozen heart samples were selected randomly from each of the four groups and were analyzed. For Panel D, blots were analyzed by densitometric scanning using Li-Cor Odyssey software, with the density of each lane normalized to the actin band. […]

Data set [2] relates to mouse model of human familial aortic aneurysm. The conditions noted are these: 1 mM cobinamide in drinking water; cited from earlier work.
Data set [3] relates to H9c2 cells. As to the kind of experiment: Mitochondrial membrane potential, JC-1 red to green fluorescence. It counts as cell-based, rat. As for the experimental part:
FIGS. 3A-3H. […] FIGS. 3A-3B. […] FIG. 3A. […] FIG. 3B. […] FIGS. 3C-3D. […] FIG. 3D. […] FIGS. 3E-3F. […] FIG. 3E. Representative blots are shown. […] FIG. 3F. […] FIG. 3G. […] FIG. 3H.
The cells were then washed once with PBS, placed back in the DMEM experimental medium, and incubated with the indicated drugs for 30 min. At the end of the incubation period, nuclei of both the MitoSOX Red- and JC-1-treated cells were stained with […] 4′,6-diamidino-2-phenyl-indole (DAPI) for 3 min, washed once with PBS, and returned to the DMEM experimental medium. The cover slips were removed from the wells, mounted in the DMEM experimental medium, and red (MitoSOX Red and JC-1 aggregates), green (JC-1 monomers), and blue (DAPI) fluorescence intensity was assessed using a Keyence BZ-X700 fluorescence microscope at the following paired excitation/emission wavelengths, respectively: 560/630, 490/525, and 360/460 nm.
Increased mitochondrial O2·^− by rotenone would be expected to reduce the mitochondrial membrane potential (ΔΨm), due in part to activation of uncoupling proteins^39. […] Rotenone caused an almost complete loss of red fluorescence and a striking increase in green fluorescence in the cells, indicating a marked decrease in ΔΨm (FIGS. 3C-3D).

Data set [4] is described as follows: Plasma cobinamide concentration in mice given cobinamide in drinking water. Conditions: discussion summary.
Protocol: Male C57BL/6NHsd mice (20 weeks old) were housed three to four animals per cage in a temperature-controlled environment with a 12-h light/dark cycle and fed standard rodent chow with ad libitum access to food and water. After one week of acclimatization, mice weighing 30±3 g were injected intraperitoneally for five consecutive days with either saline (n=20) or 50 mg/kg streptozotocin (n=20) 69. […] The 16 diabetic mice and a corresponding number of the saline-injected, non-diabetic mice were split randomly in half to receive either plain drinking water or histidyl-cobinamide in the drinking water. The four groups of animals are referred to as: diabetic vehicle (D-Veh); diabetic, cobinamide-treated (D-Cbi); non-diabetic, vehicle (ND-Veh); and non-diabetic, cobinamide-treated (ND-Cbi). The histidyl-cobinamide concentration was 1 mM for the ND-Cbi mice, but because the diabetic mice drank more than the non-diabetic mice, the cobinamide concentration for the D-Cbi mice was decreased accordingly. The water was replenished twice a week.
After three months of treatment, the mice were weighed, fasted for 6 h, and then underwent an intraperitoneal glucose tolerance test (IPGTT) using 2 g/kg of a 20% glucose solution. Blood glucose concentrations were measured just before the glucose injection (time 0, fasting specimen) and at 15, 30, 60, and 120 min following the injection. […] Two days later, the mice were euthanized by inducing deep anesthesia with 200 mg/kg ketamine and 40 mg/kg xylazine administered by intraperitoneal injection, followed by exsanguination via an open cardiac puncture.
Type I diabetic mice were generated using streptozotocin, and then provided cobinamide in the drinking water for three months.

Molecules are shown by their SMILES.

As to `C/C1=C2/[N-][C@H]([C@H](CC(N)=O)[C@@]2(C)CCC(=O)NC[C@@H](C)O)[C@]2(C)N=C(/C(C)=C3N=C(/C=C4N=C1[C@@H](CCC(N)=O)C\4(C)C)[C@@H](CCC(N)=O)[C@]\3(C)CC(N)=O)[C@@H](CCC(N)=O)[C@]2(C)CC(N)=O.[Co+3]` [cobinamide, aquohydroxo-cobinamide], in data set [1], the “Collagen content in hearts of diabetic mice” value is “reduced collagen content in the hearts of the diabetic mice essentially to that of non-diabetic mice”. In data set [2], the “Aortic oxidative stress, pathological changes and aneurysm formation” value was “blocked the increase in oxidative stress and pathological changes, and prevented aneurysm formation”; the “Clinical or laboratory evidence of toxicity” value is “no clinical or laboratory evidence of toxicity”. Also, the “JC-1 red to green fluorescence ratio (ΔΨm) in rotenone-treated cells” value in data set [3] (H9c2, 5 μM rotenone 30 min, drugs at 2.5 μM) was “restored the ratio of red to green fluorescence”. In addition, in data set [3] (H9c2, vehicle-treated cells without rotenone, 2.5 μM), the “JC-1 red to green fluorescence ratio, drug alone” value was “no change”. Besides, the “Concentration in the plasma of mice that received cobinamide in drinking water” value in data set [4] lay within 0.1 to 0.5 µM.

The values are drawn from patent US20260069606A1, “Oxidative Stress and Diabetes Treatment with Cobinamide” (The Regents of the University of California, priority 2022, published 2026).
